Measured values published in publication PMC8869242 (Biomedicines, 2022).
Read-outs that look alike come from different tables or passages of the source.

Legend:
MDA-MB-231 breast tumors [1] = experiment: Subcutaneous in vivo breast cancer xenograft study, tumor growth; set-up: species or system mice; settings: i.p. 5 consecutive days, Pd2Spm 5 mg/kg/day, cisplatin 2 mg/kg/day; for tumor growth reduction (versus the vehicle group): end of experiment (day 39 post-implantation); for average tumor volumes compared to vehicle-treated control mice: p < 0.05
Procedure: Female CBA nude (N:NIH(S)II-nu/nu) mice (6–7 weeks old, 21 animals in total) with combined immunodeficiency were purchased from i3S Animal Facility (Porto, Portugal). Animals were acclimatized at ICBAS-UP Rodent Animal House Facility (Porto, Portugal) at least one week prior to the experiments, were randomly distributed into groups of three per individually ventilated cage and were housed under controlled specific-pathogen-free (SPF) environmental conditions (temperature 22.5 ± 1.5 °C; relative humidity 50 ± 10%; 12 h light/dark cycle) with ad libitum access to water and standard pellet food (4RF21, Mucedola, Italy). Environmental enrichment included corncob bedding, paper roll tube and one large sheet of tissue paper for nesting. Animals were monitored daily for health status and welfare.

MDA-MB-231 breast tumors [2] = experiment: Histology, Ki-67 immunohistochemistry and TUNEL assay of xenograft tumors; type: in vivo, mice; settings: Pd2Spm 5 mg/kg/day, cisplatin 2 mg/kg/day, versus vehicle
Procedure: For the immunohistochemical study, tissue sections were dewaxed and rehydrated. Slides were submitted to […] by immersion in 10% retrieval solution (Dako) and kept in a water bath at 100 °C for 20 min. After blocking of non-specific staining, slides were incubated with primary antibody for Ki-67 (1:50 dilution, clone MIB-1, Dako) overnight at 4 °C. Slides were then stained with Novolink Polymer Detection Systems (Leica Biosystems Inc., Buffalo Grove, IL, USA) following manufacturer’s instructions, counterstained with hematoxylin and permanently mounted. The nuclear Ki-67 staining was analyzed using Fiji’s high-throughput automatic quantitation with Andy’s Algorithm pipeline, as described elsewhere. The immunoreactivity was evaluated, counting at least 600 nuclei/field from 5 representative fields of the lesion at high magnification, avoiding necrotic areas. The ratio of Ki-67 positive nuclei per all counted nuclei was expressed as a percentage (Ki-67 proliferation index).
The paraffin-embedded tumor sections were deparaffinized, rehydrated through a graded series of ethanol and double distilled water and then stained with In Situ Cell Death Detection Kit (Roche Diagnostics GmbH, Mannheim, Germany) as per manufacturer’s instructions. Apoptosis was quantified at single-cell level by counting the number of cells positive for terminal deoxynucleotidyl transferase (TdT) dUTP nick-end labeling (TUNEL-positive cells). Briefly, tumor sections were incubated with 20 µg/mL proteinase K solution (in 10 mM Tris/HCl, pH 7.4–8) for 30 min at 37 °C. Slides were washed and stained with TUNEL reaction mixture (mixture of terminal deoxynucleotidyl transferase with labeled nucleotides) for 60 min at 37 °C in the dark followed by three washes. Slides were mounted with […] Antifade Mounting Medium with DAPI, and coverslips were sealed. At least twenty nonoverlapping high-power microscope fields of each tumor section were captured while avoiding areas with central necrosis. Fluorescence images were acquired using the LionHeart automated microscope at Ex: 520–560 nm and Em: 570–620 nm.

[3] = tested on: Ehrlich ascites carcinoma (EAC); settings: 4 mg/kg, cited from earlier work; for tumor volume reduction: two injections per week for 2 weeks (cumulative 16 mg/kg); for deaths during treatment: two injections per week for 2 weeks
[4] = Hematological and plasma biochemical analyses in tumor-bearing mice; type: in vivo; settings: Pd2Spm 5 mg/kg/day, cisplatin 2 mg/kg/day, end of study
Procedure: Red blood cells (RBC), hemoglobin (Hb), hematocrit (Hct), mean corpuscular volume (MCV) and mean corpuscular hemoglobin (MCH) were analyzed in a small aliquot of whole blood using ABX Micros 60 automated analyzer (Horiba ABX SAS, Montpellier, France). The remaining blood was centrifuged at 900× g for 15 min, and plasma was separated into aliquots and frozen at −80 °C for biochemical assays. Plasma parameters were analyzed using commercial kits for aspartate aminotransferase—AST (AST CP, A11A01629), alanine transaminase—ALT (ALT CP, A11A01627), cholesterol (CHOL CP, A11A01634), creatinine (Creatinine 120 CP, A11A01868), glucose (Glucose PAP CP, A11A01668), total protein (Total protein CP, A11A01669), triglycerides (Triglycerides CP, A11A01640) and urea (Urea CP, A11A01641). All parameters were determined with an automated analyzer Pentra 400 (ABX Horiba diagnostics, Montpellier, France).

breast cancer cells = settings: cited from earlier work
[5] = mice; cited from earlier work
MDA-MB-231 = settings: cited from earlier work
MDA-MB-468 TNBC cells = settings: cited from earlier work

Row | Structure (SMILES) | tumor growth reduction (versus the vehicle group) (MDA-MB-231 breast tumors [1]) [%] | average tumor volumes compared to vehicle-treated control mice (MDA-MB-231 breast tumors [1]) | TUNEL-positive cells in tumors (DNA damage) (MDA-MB-231 breast tumors [2]) | mitotic count in tumors (MDA-MB-231 breast tumors [2]) | tumor volume reduction ([3]; first study) [%] | tumor volume reduction ([3]; second study) [%] | deaths during treatment ([3]; first study) | deaths during treatment ([3]; second study) | Ki-67 index of tumors (MDA-MB-231 breast tumors [2]) | hematologic analysis (RBC, Hb, Htc, MCV, MCH) versus vehicle [4] | plasma biochemical analysis (urea, creatinine, glucose, AST, ALT, total proteins, triglycerides, total cholesterol) versus vehicle [4] | amount accumulated in breast cancer cells relative to cisplatin (breast cancer cells) | accumulation in major organs relative to cisplatin [5] | serum terminal half-life relative to cisplatin [5] | IC50 values (MDA-MB-231) | IC50 values (MDA-MB-468 TNBC cells)
1 | N.N.[Cl][Pt][Cl] [Cisplatin, cis-dichlorodiammine platinum(II), reference compound] | 56.6 | significantly lower | significant increase | mitotic count of vehicle-treated animals was significantly increased compared to cisplatin- and Pd2Spm-treated groups | 36.4 | 46.7 | two associated deaths | no associated deaths |  |  |  |  |  |  |  | 
2 | NCCCNCCCCNCCCN.[Cl][Pd][Cl].[Cl][Pd][Cl] [Pd2Spm, dinuclear palladium(II)-spermine chelate] | 43.3 | significantly lower | significant increase | mitotic count of vehicle-treated animals was significantly increased compared to cisplatin- and Pd2Spm-treated groups |  |  |  |  | significantly decreased | no significant deviations | did not reveal changes | approximately four times lower | lower accumulation in major organs | very similar serum terminal half-life to cisplatin | within a low micromolar range | within a low micromolar range
